Test: Urinary PABA recovery (compliance marker), Example 1 trial
Assay type: in vivo, human
Conditions: 24 h urine, all time points; 120 mg PABA per bar, 2 bars daily
Procedure: Subjects were then randomized in a parallel design into two groups to receive either the nutrient test bar or placebo food. Both placebo and test bars contained 120 mg PABA (para-aminobenzoic acid), urinary excretion of which was used as a measure of compliance. Subjects were asked to continue adherence to dietary restrictions described above and to consume the provided test or control product twice daily (once with breakfast and once with evening meal) over the 10 week period.
Fasting venous blood samples were collected at the start of the 10 week intervention phase and on the last week of the intervention period. Serum and EDTA plasma samples were then collected following centrifugation at 3000 rpm for 10 mins at 4° C. and aliquots stored at −80° C. prior to analysis. Twenty-four hour urine samples were also collected at a total of 6 different time points through the study to monitor PABA excretion.
33 subjects completed the study. Compliance was judged to be good as assessed by both subjective and objective measures. Briefly, subjects completed a food diary, in which labels attached to study bars were peeled off and stuck once consumed. The maximum number of bars reported to be missed was 14 during the 12 week (and therefore 168 bar) trial. This was corroborated by the urinary PABA results, which were used as an objective measure of compliance.

A PABA recovery of over 85% was found for Nc1ccc(C(=O)O)cc1 [PABA, para-aminobenzoic acid] in this work.
